Structures are written as SMILES.

For the compound `CCCCCCCOc1ccccc1NC(=O)OCCN(C)C`, the logP (usually a log measure of how a compound divides between an organic and an aqueous phase) was 2.5.
As for `CCCCCCCCCOc1cccc(NC(=O)OCCN(C)C)c1`, the logP came out at 3.21.
In turn, `COc1ccccc1NC(=O)OCCN(C)C` had a logP of 1.15.
As to `CCCOc1ccc(NC(=O)OCCN(C)C)cc1`, the logP came to 1.41.
As to `CCCCCOc1cccc(NC(=O)OCCN(C)C)c1`, the logP came to 1.72.
`CCCCCOc1ccc(NC(=O)OCCN(C)C)cc1` gave a logP of 2.11.
As to `CCCCOc1cccc(NC(=O)OCCN(C)C)c1`, the logP worked out at 1.35.
`CCCCCCOc1cccc(NC(=O)OCCN(C)C)c1`: the logP came out at 2.01.
Take `CCCCCCOc1ccc(NC(=O)OCCN(C)C)cc1`: the logP was 2.47.
`CCOc1cccc(NC(=O)OCCN(C)C)c1` gave a logP of 0.8.
Take `CCCCCCCCOc1ccc(NC(=O)OCCN(C)C)cc1`: the logP turned out to be 3.26.
In turn, `CCCCCOc1ccccc1NC(=O)OCCN(C)C` yielded a logP of 1.83.
For the compound `CCCCOc1ccc(NC(=O)OCCN(C)C)cc1`, the logP turned out to be 1.77.
In turn, `CCCCCCCCCOc1ccccc1NC(=O)OCCN(C)C` registered a logP of 3.35.
`CCCCCCOc1ccccc1NC(=O)OCCN(C)C` displayed a logP of 2.13.
Compound `CCCCCCCCOc1ccccc1NC(=O)OCCN(C)C` registered a logP of 2.98.
In turn, `CCOc1ccccc1NC(=O)OCCN(C)C` yielded a logP of 1.15.
Regarding `COc1ccc(NC(=O)OCCN(C)C)cc1`, the logP was 0.97.
Turning to `CCCCCCCCOc1cccc(NC(=O)OCCN(C)C)c1`, the logP was 2.87.
As to `CCCOc1ccccc1NC(=O)OCCN(C)C`, the logP turned out to be 1.24.
`CCCCCCCCCCOc1ccc(NC(=O)OCCN(C)C)cc1` registered a logP of 4.02.
Consider `CCOc1ccc(NC(=O)OCCN(C)C)cc1`, for which the logP was 1.14.
`CCCOc1cccc(NC(=O)OCCN(C)C)c1` gave a logP of 1.04.
For `CCCCCCCOc1ccc(NC(=O)OCCN(C)C)cc1`, the logP was 2.93.
`CCCCCCCOc1cccc(NC(=O)OCCN(C)C)c1` had a logP of 2.43.
As to `CCCCCCCCCCOc1ccccc1NC(=O)OCCN(C)C`, the logP came out at 3.82.
`CCCCOc1ccccc1NC(=O)OCCN(C)C`: the logP stood at 1.5.

Source of the values: the SangsterLogP compilation.
